Experimental data: patent US8841233B2, “Herbicidal compositions comprising 4-amino-3-chloro-5-fluoro-6-(4-chloro-2-fluoro-3-methoxyphenyl) pyridine-2-carboxylic acid or a derivative thereof and 4-hydroxyphenyl-pyruvate dioxygenase (HPPD) inhibitors” (Dow Agrosciences LLC, priority 2012, dated 2014)

Experiments:
LEFCH = experiment: In-water applied weed control, transplanted paddy rice, greenhouse (Example II); format: in vivo, Leptochloa chinensis (L.) Nees
Description: (§1) Evaluation of in-Water Applied Herbicidal Mixtures for Weed Control in Transplanted Paddy Rice
(§2) Weed seeds or nutlets of the desired test plant species were planted in puddled soil (mud) prepared by mixing a shredded, non-sterilized mineral soil (50.5 percent silt, 25.5 percent clay, and 24 percent sand, with a pH of about 7.6 and an organic matter content of about 2.9 percent) and water at a 1:1 volumetric ratio. The prepared mud was dispensed in 365 mL aliquots into 16-ounce (oz.) non-perforated plastic pots with a surface area of 86.59 square centimeters (cm^2) leaving a headspace of 3 centimeters (cm) in each pot. Mud was allowed to dry overnight prior to planting or transplanting. Rice seeds were planted in Sun Gro MetroMix® 306 planting mixture, which typically has a pH of 6.0 to 6.8 and an organic matter content of about 30 percent, in plastic plug trays. Seedlings at the second or third leaf stage of growth were transplanted into 840 mL of mud contained in 32-oz. non-perforated plastic pots with a surface area of 86.59 cm^2 4 days prior to herbicide application. The paddy was created by filling the headspace of the pots with 2.5 to 3 cm of water. When required to ensure good germination and healthy plants, a fungicide treatment and/or other chemical or physical treatment was applied. The plants were grown for 4-22 days in a greenhouse with an approximate 14 h photoperiod which was maintained at about 29′C during the day and 26° C. during the night. Nutrients were added as Osmocote® (19:6:12, N:P:K+ minor nutrients) at 2 g per 16-oz. pot and 4 g per 32-oz. pot. Water was added on a regular basis to maintain the paddy flood, and supplemental lighting was provided with overhead metal halide 1000-Watt lamps as necessary. The plants were employed for testing when they reached the first through fourth true leaf stage.
(§3) Treatments consisted of the acid or esters of 4-amino-3-chloro-5-fluoro-6-(4-chloro-2-fluoro-3-methoxy-phenyl)pyridine-2-carboxylic acid (compound A) each formulated as an SC (suspension concentrate) and various herbicidal components alone and in combination. Forms of compound A were applied on an acid equivalent basis.
(§4) Other herbicidal components were applied on an active ingredient basis and included 4-hydroxyphenyl pyruvate dioxygenase (HPPD)-inhibiting herbicides mesotrione formulated as Callisto®, sulcotrione formulated as Mikado®, pyrazolynate formulated as Sunbird® 10% GR, and benzobicyclon formulated as Benzobicyclon 3.5% or technical material.
(§5) Treatment requirements for each compound or herbicidal component were calculated based upon the rates being tested, the concentration of active ingredient or acid equivalent in the formulation, an application volume of 2 mL per component per pot, and an application area of 86.59 cm^2 per pot.
(§6) For formulated compounds, a measured amount was placed in an individual 100 or 200 mL glass vial and was dissolved in a volume of 1.25% (v/v) Agri-Dex® crop oil concentrate to obtain application solutions.
(§7) For technical grade compounds, a weighed amount was placed in an individual 100 to 200 mL glass vial and was dissolved in a volume of acetone to obtain concentrated stock solutions. […] The concentrated stock solutions obtained were diluted with an equivalent volume of an aqueous mixture containing 2.5% (v/v) crop oil concentrate so that the final application solutions contained 1.25% (v/v) crop oil concentrate.
(§8) Applications were made by injecting with a pipetter appropriate amounts of the application solutions, individually and sequentially, into the aqueous layer of the paddy. Control plants were treated in the same manner with the solvent blank. Applications were made so that all treated plant material received the same concentrations of acetone and crop oil concentrate.
(§9) The treated plants and control plants were placed in a greenhouse as described above and water was added as needed to maintain a paddy flood. […]

ECHOR = experiment: as above; format: in vivo, Echinochloa oryzoides (Ard.) Fritsch
Description: as §1, §2, §3, §4, §5, §6, §7, §8, §9

Row | Compound | Visual Weed Control (%) - 21 DAA LEFCH Obs (LEFCH; 4.38 gae/ha) [%] | Visual Weed Control (%) - 21 DAA LEFCH Obs (LEFCH; 8.75 gae/ha) [%] | Visual Weed Control (%) - 20 DAA ECHOR Obs (ECHOR; 4.38 gae/ha) [%] | Visual Weed Control (%) - 21 DAA ECHOR Obs (ECHOR; 4.38 gae/ha) [%] | Visual Weed Control (%) - 20 DAA ECHOR Obs (ECHOR; 8.75 gae/ha) [%] | Visual Weed Control (%) - 21 DAA ECHOR Obs (ECHOR; 8.75 gae/ha) [%] | Visual Weed Control (%) - 22 DAA ECHOR Obs (ECHOR; 8.75 gae/ha) [%] | Visual Weed Control (%) - 20 DAA ECHOR Obs (ECHOR; 17.5 gae/ha) [%] | Visual Weed Control (%) - 21 DAA ECHOR Obs (ECHOR; 17.5 gae/ha) [%] | Visual Weed Control (%) - 22 DAA ECHOR Obs (ECHOR; 17.5 gae/ha) [%] | Visual Weed Control (%) - 21 DAA ECHOR Obs (ECHOR; 96 gae/ha) [%] | Visual Weed Control (%) - 21 DAA LEFCH Obs (LEFCH; 17.5 gae/ha) [%] | Visual Weed Control (%) - 22 DAA ECHOR Obs (ECHOR; 21.2 gae/ha) [%] | Visual Weed Control (%) - 20 DAA ECHOR Obs (ECHOR; 42.4 gae/ha) [%] | Visual Weed Control (%) - 22 DAA ECHOR Obs (ECHOR; 42.4 gae/ha) [%] | Visual Weed Control (%) - 20 DAA ECHOR Obs (ECHOR; 84.8 gae/ha) [%]
1 | COc1c(Cl)ccc(-c2nc(C(=O)OCc3ccccc3)c(Cl)c(N)c2F)c1F [Compound A Benzyl Ester, benzyl ester of 4-amino-3-chloro-5-fluoro-6-(4-chloro-2-fluoro-3-methoxy-phenyl)pyridine-2-carboxylic acid] | 15 | 15 | 10 | 25 | 20 | 25 | 40 | 30 | 60 | 95 | 80 |  |  |  |  | 
2 | COc1c(Cl)ccc(-c2nc(C(=O)O)c(Cl)c(N)c2F)c1F [Compound A Acid, 4-amino-3-chloro-6-(4-chloro-2-fluoro-3-methoxyphenyl)-5-fluoropyridine-2-carboxylic acid] |  | 0 |  |  |  |  |  |  |  |  |  | 0 | 20 | 18 | 40 | 33
